Tested on: C-reactive protein (CRP)
Test: CRP (hs-CRP) in blood, CHASE clinical study
Type: in vivo, human
Conditions: Group X 12 mg BID; for CRP Max / CRP Mean (SD) / CRP Median / CRP Min: V6 Week 12
Excerpt: This is a two-part study comprising Part I and Part II. Following screening, Part I consists of a randomized, double-blind, placebo controlled dosing period of up to 12 weeks. The study shall be conducted at one or more study sites in Hawaii. Approximately 360 subjects qualified after completion of screening procedures shall be randomized in a 1:1:1 ratio to one of three treatment groups, per Table 1.
The Part I 12-week double-blind dosing period commences with V2, including randomization and first dose of study product, and continues with study visits at Week 1-2 (V3), Week 4 (V4), Week 8 (V5), and Week 12 (V6). V6 procedures will conclude Part I.
Blood shall be obtained at each visit for CRP. The screening specimen shall be processed at the local lab and reported to the study staff for eligibility determination; CRP samples at V7 and V8 may also be processed locally and reported directly to study staff. Samples for CRP from V2 through V6 may be batched, processed, and reported as specified in the Laboratory Manual.
At each these visits, blood was obtained for measurement of CRP, among other parameters. Table 7A provides a summary of the CRP measurements (mg/L) at each visit and Table 7B provides a summary of the differences of CRP levels between V2 and V6.

[1] = subjects with DM2, hypertension and hyperlipidemia but not CAD
[2] = subjects with Diabetes Mellitus Type II
[3] = subjects with baseline level greater than 2.0
[4] = baseline to Week 12, all subjects
[5] = baseline to Week 12, subjects not taking a hypertension agent
[6] = baseline to Week 12, subjects not taking any cardiac therapeutic agent
[7] = baseline to Week 12, subjects not taking statins
[8] = baseline to Week 12, subjects taking an anti-diabetic agent
[9] = baseline to Week 12, subjects with CAD
[10] = baseline to Week 12, subjects with DM2, hypertension and hyperlipidemia but not CAD
[11] = baseline to Week 12, subjects with Diabetes Mellitus Type II
[12] = baseline to Week 12, subjects with baseline level greater than 2.0
[13] = baseline to Week 12, subjects with hyperlipidemia

## CC1=C(/C=C/C(C)=C/C=C/C(C)=C/C=C/C=C(C)/C=C/C=C(C)/C=C/C2=C(C)C(=O)C(O)CC2(C)C)C(C)(C)CC(O)C1=O (stereo not drawn) [Astaxanthin, astaxanthin]
[1]
  CRP Max: 6.80 mg/L
  CRP Mean (SD): 2.95 (2.32) mg/L
  CRP Median: 1.91 mg/L
  CRP Min: 1.02 mg/L
[2]
  CRP Max: 6.80 mg/L
  CRP Mean (SD): 2.91 (2.07) mg/L
  CRP Median: 2.32 mg/L
  CRP Min: 1.02 mg/L
[3]
  CRP Max: 11.04 mg/L
  CRP Mean (SD): 3.69 (3.14) mg/L
  CRP Median: 2.71 mg/L
  CRP Min: 0.22 mg/L
Subjects with hyperlipidemia
  CRP Max: 11.04 mg/L
  CRP Mean (SD): 3.90 (3.38) mg/L
  CRP Median: 2.71 mg/L
  CRP Min: 1.02 mg/L
[4]
  CRP V2 to V6 % Change Max: 122.6%
  CRP V2 to V6 % Change Mean: −21.3%
  CRP V2 to V6 % Change Median: −31.8%
  CRP V2 to V6 % Change Min: −89.8%
  CRP V2 to V6 Change Max: 6.08 mg/L
  CRP V2 to V6 Change Mean: -2.07 mg/L
  CRP V2 to V6 Change Median: -1.57 mg/L
  CRP V2 to V6 Change Min: -11.1 mg/L
[5]
  CRP V2 to V6 % Change Max: −25.8, −25.8%
  CRP V2 to V6 % Change Mean (SD): −25.8%
  CRP V2 to V6 % Change Median: −25.8%
  CRP V2 to V6 % Change Min: −25.8, −25.8%
  CRP V2 to V6 Change Max: −0.94, −0.94 mg/L
  CRP V2 to V6 Change Mean (SD): -0.94 mg/L
  CRP V2 to V6 Change Median: -0.94 mg/L
  CRP V2 to V6 Change Min: −0.94, −0.94 mg/L
[6]
  CRP V2 to V6 % Change Max: −25.8%
  CRP V2 to V6 % Change Mean (SD): −56.6 (29.46) %
  CRP V2 to V6 % Change Median: −61.9%
  CRP V2 to V6 % Change Min: −89.8%
  CRP V2 to V6 Change Max: -0.37 mg/L
  CRP V2 to V6 Change Mean (SD): −4.28 (4.63) mg/L
  CRP V2 to V6 Change Median: -1.94 mg/L
  CRP V2 to V6 Change Min: -11.1 mg/L
[7]
  CRP V2 to V6 % Change Max: 122.6%
  CRP V2 to V6 % Change Mean (SD): 2.34 (88.58) %
  CRP V2 to V6 % Change Median: −25.6%
  CRP V2 to V6 % Change Min: −89.8%
  CRP V2 to V6 Change Max: 6.08 mg/L
  CRP V2 to V6 Change Mean (SD): −0.18 (4.04) mg/L
  CRP V2 to V6 Change Median: -0.80 mg/L
  CRP V2 to V6 Change Min: -5.89 mg/L
[8]
  CRP V2 to V6 % Change** Max: −26.6%
  CRP V2 to V6 % Change** Mean (SD): −52.9 (20.70) %
  CRP V2 to V6 % Change** Median: −55.7%
  CRP V2 to V6 % Change** Min: −78.8%
  CRP V2 to V6 Change Max: -0.37 mg/L
  CRP V2 to V6 Change Mean (SD): −4.61 (4.14) mg/L
  CRP V2 to V6 Change Median: -3.76 mg/L
  CRP V2 to V6 Change Min: -11.1 mg/L
[9]
  CRP V2 to V6 % Change Max: −68.4%
  CRP V2 to V6 % Change Mean (SD): −68.4%
  CRP V2 to V6 % Change Median: −68.4%
  CRP V2 to V6 % Change Min: −68.48%
  CRP V2 to V6 Change Max: −5.89, −5.89 mg/L
  CRP V2 to V6 Change Mean (SD): -5.89 mg/L
  CRP V2 to V6 Change Median: -5.89 mg/L
  CRP V2 to V6 Change Min: −5.89, −5.89 mg/L
[10]
  CRP V2 to V6 % Change Max: −26.6%
  CRP V2 to V6 % Change Mean (SD): −49.7 (21.51) %
  CRP V2 to V6 % Change Median: −49.5%
  CRP V2 to V6 % Change Min: −78.8%
  CRP V2 to V6 Change Max: -0.37 mg/L
  CRP V2 to V6 Change Mean (SD): −4.35 (4.57) mg/L
  CRP V2 to V6 Change Median: -1.63 mg/L
  CRP V2 to V6 Change Min: -11.1 mg/L
[11]
  CRP V2 to V6 % Change Max: −26.6%
  CRP V2 to V6 % Change Mean (SD): −52.9 (20.70) %
  CRP V2 to V6 % Change Median: −55.7%
  CRP V2 to V6 % Change Min: −78.8%
  CRP V2 to V6 Change Max: -0.37 mg/L
  CRP V2 to V6 Change Mean (SD): −4.61 (4.14) mg/L
  CRP V2 to V6 Change Median: -3.76 mg/L
  CRP V2 to V6 Change Min: -11.1 mg/L
[12]
  CRP V2 to V6 % Change Max: 122.6%
  CRP V2 to V6 % Change Mean (SD): −20.8 (73.37) %
  CRP V2 to V6 % Change Median: −40.7%
  CRP V2 to V6 % Change Min: −89.8%
  CRP V2 to V6 Change Max: 6.08 mg/L
  CRP V2 to V6 Change Mean (SD): −2.24 (4.83) mg/L
  CRP V2 to V6 Change Median: -1.60 mg/L
  CRP V2 to V6 Change Min: -11.1 mg/L
[13]
  CRP V2 to V6 % Change Max: 122.6%
  CRP V2 to V6 % Change Mean (SD): −27.5 (63.84) %
  CRP V2 to V6 % Change Median: −40.7%
  CRP V2 to V6 % Change Min: −78.8%
  CRP V2 to V6 Change Max: 6.08 mg/L
  CRP V2 to V6 Change Mean (SD): −2.81 (5.17) mg/L
  CRP V2 to V6 Change Median: -1.60 mg/L
  CRP V2 to V6 Change Min: -11.1 mg/L
